The source of these data is patent US7592351B2, “Substituted imidazo[1,2-a]pyridine compounds and pharmaceutical preparations containing substituted imidazo[1,2-a]pyridine compounds” (Gruenenthal GmbH, priority 2004, dated 2009).

The structures appear in SMILES notation. Where a name gives a salt, the structure may show the parent alone.

The target of this assay is T1, vanilloid receptor (VR1) (Rattus norvegicus, UniProt O35433).
T1 construct: expressed in transfected cells; host or cells: CHO K1 cells (ECACC)
T1 sequence (O35433 whole entry): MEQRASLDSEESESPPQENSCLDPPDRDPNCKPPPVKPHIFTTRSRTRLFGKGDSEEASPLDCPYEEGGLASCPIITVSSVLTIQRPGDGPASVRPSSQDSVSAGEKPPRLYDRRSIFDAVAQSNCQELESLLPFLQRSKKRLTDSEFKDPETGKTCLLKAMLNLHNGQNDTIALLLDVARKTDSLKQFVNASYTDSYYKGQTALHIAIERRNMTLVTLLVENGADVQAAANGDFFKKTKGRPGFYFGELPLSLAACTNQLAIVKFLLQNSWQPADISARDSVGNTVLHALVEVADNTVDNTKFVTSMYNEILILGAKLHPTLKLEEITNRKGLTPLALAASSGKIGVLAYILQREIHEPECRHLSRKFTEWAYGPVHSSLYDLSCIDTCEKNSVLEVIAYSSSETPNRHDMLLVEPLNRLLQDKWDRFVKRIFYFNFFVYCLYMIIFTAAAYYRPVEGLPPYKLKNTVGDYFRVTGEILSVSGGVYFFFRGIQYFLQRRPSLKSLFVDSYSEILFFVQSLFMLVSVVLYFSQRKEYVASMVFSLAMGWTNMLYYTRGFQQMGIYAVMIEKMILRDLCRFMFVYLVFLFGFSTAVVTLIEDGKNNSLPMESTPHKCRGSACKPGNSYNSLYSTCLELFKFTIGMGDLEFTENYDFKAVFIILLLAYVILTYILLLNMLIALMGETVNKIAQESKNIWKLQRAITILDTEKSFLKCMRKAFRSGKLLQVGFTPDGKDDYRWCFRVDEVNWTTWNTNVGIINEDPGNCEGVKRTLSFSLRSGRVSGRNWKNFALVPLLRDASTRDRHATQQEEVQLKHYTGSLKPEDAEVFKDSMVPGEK
The assay can be described thus: Functional investigations on vanilloid receptor (VR1): Ca2+ influx FLIPR assay in CHO K1 cells stably transfected with the VR1 gene. Type of assay: cell-based, rats. Conditions: method (b), 10 μM, 1–3 measurements; for inhibition at 10 µM: CHO-K1, read-out: VR1 inhibition in rats (10 μM) [%]. An excerpt: (b) Functional Investigations on Vanilloid Receptor (VR1)
The agonistic or antagonistic action of the substances to be investigated on the vanilloid receptor (VR1) may be determined with the following assay. According to this assay, the influx of Ca^2+ through the channel is quantified with the assistance of a Ca^2+-sensitive dye (type Fluo4, Molecular Probes Europe BV, Leiden, Netherlands) in a Fluorescent Imaging Plate Reader (FLIPR, Molecular Devices, Sunnyvale, USA).
Chinese hamster ovary cells (CHO K1 cells, European Collection of Cell Cultures (ECACC), Great Britain) are stably transfected with the VR1 gene. For functional investigations, these cells are plated out onto poly-D-lysine-coated, black 96 well plates with a clear bottom (BD Biosciences, Heidelberg, Germany) at a density of 25,000 cells/well. The cells are incubated overnight at 37° C. and 5% CO2 in a culture medium (Ham's Nutrient Mixture F12, 10 vol. % FCS (foetal calf serum), 18 μg/mL L-proline). On the following day, the cells are incubated with Fluo4 (Fluo4 2 μM, Pluronic F127 0.01 vol. %, Molecular Probes in HBSS (Hank's buffered saline solution), Gibco Invitrogen GmbH, Karlsruhe, Germany) for 30 minutes at 37° C. The plates are then washed 3 times with HBSS buffer and, after a further 15 minutes' incubation at room temperature, used for Ca^2+ measurement in the FLIPR. Ca^2+-dependent fluorescence is here measured before and after addition of the substances to be investigated (wavelength λex=488 nm, λem=540 nm). Quantification proceeds by measuring the highest fluorescence intensity (FC, fluorescence counts) over time.
The FLIPR protocol comprises 2 additions of substance. […] The percentage inhibition in comparison with the maximum achievable inhibition with 10 μM capsazepine is calculated.

Regarding `CCCCCCCNc1c(-c2ccoc2)nc2ccccn12` [Example 6, (2-Furan-3-yl-imidazo[1,2-a]pyridin-3-yl)-heptyl-amine hydrochloride], the inhibition at 10 µM was found to be 66.4%. On to `CCCCCC(C)(C)Nc1c(-c2ccoc2)nc2ccccn12` [Example 7, (1,1-Dimethyl-hexyl)-(2-furan-3-yl-imidazo[1,2-a]pyridin-3-yl)-amine hydrochloride], for which the inhibition at 10 µM stood at 46%. Take `CCCCCCCNc1c(-c2ccoc2)nc2cc(C)ccn12.Cl` [Example 11, (2-Furan-3-yl-7-methyl-imidazo[1,2-a]pyridin-3-yl)-heptyl-amine hydrochloride]: the inhibition at 10 µM is 81.7% and the “VR1 activation in rats (10 μM) [%]” value is 50.3%. Taken in the same sequence, the figures for `CCCCCCCCNc1c(-c2ccoc2)nc2cc(C)ccn12.Cl` [Example 12, (2-Furan-3-yl-7-methyl-imidazo[1,2-a]pyridin-3-yl)-octyl-amine hydrochloride] were 84.6% and 36.9%. Taken in the same sequence, the figures for `CCCCCC(C)(C)Nc1c(-c2ccoc2)nc2cc(C)ccn12.Cl` [Example 14, (1,1-Dimethyl-hexyl)-(2-furan-3-yl-7-methyl-imidazo[1,2-a]pyridin-3-yl)-amine hydrochloride] were 97.9% and 52.1%. Take `CCCCCCC(C)(C)Nc1c(-c2ccoc2)nc2cc(C)ccn12.Cl` [Example 15, (1,1-Dimethyl-heptyl)-(2-furan-3-yl-7-methyl-imidazo[1,2-a]pyridin-3-yl)-amine hydrochloride]: the inhibition at 10 µM came out at 92.5% and the “VR1 activation in rats (10 μM) [%]” value is 49%. Take `CCCCCCCC(C)(C)Nc1c(-c2ccoc2)nc2cc(C)ccn12` [Example 16, (1,1-Dimethyl-octyl)-(2-furan-3-yl-7-methyl-imidazo[1,2-a]pyridin-3-yl)-amine hydrochloride]: the inhibition at 10 µM is 31.8%. `CCCCCC(C)(C)Nc1c(-c2ccsc2)nc2cc(C)ccn12.Cl` [Example 17, (1,1-Dimethyl-hexyl)-(7-methyl-2-thiophen-3-yl-imidazo[1,2-a]pyridin-3-yl)-amine hydrochloride]: the inhibition at 10 µM was determined as 97.5% and the “VR1 activation in rats (10 μM) [%]” value stood at 68.9%. `CCCCCCC(C)(C)Nc1c(-c2ccsc2)nc2cc(C)ccn12.Cl` [Example 18, (1,1-Dimethyl-heptyl)-(7-methyl-2-thiophen-3-yl-imidazo[1,2-a]pyridin-3-yl)-amine hydrochloride]: the inhibition at 10 µM was found to be 62.8% and the “VR1 activation in rats (10 μM) [%]” value amounted to 45.3%. As for `CCCCCCCCCNc1c(-c2cccnc2)nc2cc(C)ccn12` [Example 23, (7-Methyl-2-pyridin-3-yl-imidazo[1,2-a]pyridin-3-yl)-nonyl-amine hydrochloride], the inhibition at 10 µM was 34.4%. On the same count and under the same terms, the same measure for `CCCCCCCCNc1c(-c2ccncc2)nc2cc(C)ccn12` [Example 25, (7-Methyl-2-pyridin-4-yl-imidazo[1,2-a]pyridin-3-yl)-octyl-amine hydrochloride]: 33.2%; for `CCCCCC(C)(C)Nc1c(-c2ccncc2)nc2cc(C)ccn12` [Example 26, (1,1-Dimethyl-hexyl)-(7-methyl-2-pyridin-4-yl-imidazo[1,2-a]pyridin-3-yl)-amine hydrochloride]: 32.1%; for `CCCCCCCCNc1c(-c2ccoc2)nc2ccc(C)cn12` [Example 27, (2-Furan-3-yl-6-methyl-imidazo[1,2-a]pyridin-3-yl)-octyl-amine hydrochloride]: 61.1%. In the case of `CCCCCC(C)(C)Nc1c(-c2ccoc2)nc2ccc(C)cn12` [Example 28, (1,1-Dimethyl-hexyl)-(2-furan-3-yl-6-methyl-imidazo[1,2-a]pyridin-3-yl)-amine hydrochloride], the inhibition at 10 µM amounted to 36.6%.

The term inhibition denotes the percentage by which the read-out fell short of the control.
